According to article PMC8214093, “Structural basis of KdpD histidine kinase binding to the second messenger c-di-AMP” (The Journal of Biological Chemistry, 2021):

Target: USPSa-WT (Staphylococcus aureus, UniProt A0A7U7EVR3)
Test: biochemical
Type: binding
Details: His6-USPSa WT, MST, changes in initial fluorescence; for Dissociation Constant (KD) ± Standard Deviation: columns without unit
Protocol: For labeling, the proteins were diluted to a concentration of 800 nM in binding buffer (50 mM potassium phosphate, pH 8.0, 800 mM NaCl, and 0.05% Tween 20), mixed with an equal volume of RED-Tris-NTA dye (80 nM), and incubated on ice in the dark for 30 min. […] The labeled proteins and the ligand dilutions were then mixed in a 1:1 ratio and incubated on ice in the dark for 30 min.
The samples were then loaded into Monolith standard-treated capillaries in triplicate, and the changes in fluorescence were measured with 40% LED power and 20% IR-laser power for an on-time of 20-s at 23 °C. To determine the binding affinity, the ligand-dependent changes in the intensity of the initial fluorescence, or the thermophoretic mobility, were analyzed according to the law of mass action in a standard fitting mode of MO.Affinity analysis software (version 2.3). To exclude the possibility of nonspecific binding of the ligand to the His6-tag (on USPSa) or ligand-induced USP adsorption to labware or due to aggregation, we performed His6-peptide and EDTA tests, respectively ([91]). […] In the EDTA test, the binding buffer additionally contained 50 mM EDTA to disrupt the interaction between His6-USP and the RED-Tris-NTA dye.

USPSa-WT, sequence (A0A7U7EVR3 entry or part of it): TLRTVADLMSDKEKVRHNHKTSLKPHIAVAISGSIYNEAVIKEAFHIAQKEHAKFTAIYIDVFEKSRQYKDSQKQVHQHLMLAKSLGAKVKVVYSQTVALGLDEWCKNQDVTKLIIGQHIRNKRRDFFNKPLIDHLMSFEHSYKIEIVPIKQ

Structure (SMILES) | Kd (Dissociation Constant (KD) ± Standard Deviation) [mM] | Dissociation Constant (KD) ± Standard Deviation
Nc1ncnc2c1ncn2[C@@H]1O[C@@H]2COP(=O)(O)O[C@H]2[C@H]1O [c-AMP, cyclic AMP] | 10 ± 0.71 | –
Nc1ncnc2c1ncn2[C@@H]1O[C@@H]2COP(=O)(O)O[C@H]3[C@@H](O)[C@H](n4cnc5c(N)ncnc54)O[C@@H]3COP(=O)(O)O[C@H]3[C@@H](O)[C@H](n4cnc5c(N)ncnc54)O[C@@H]3COP(=O)(O)O[C@H]2[C@H]1O [c-tri-AMP] | – | No Binding Observed
Nc1nc2c(ncn2[C@@H]2O[C@@H]3COP(=O)(O)O[C@H]4[C@@H](O)[C@H](n5cnc6c(=O)[nH]c(N)nc65)O[C@@H]4COP(=O)(O)O[C@H]3[C@H]2O)c(=O)[nH]1 [c-di-GMP] | – | No Binding Observed
